Laboratory results as given in patent US7820876B2 (priority 2000, dated 2010).
Entries after “also recorded” stand apart in the source; their conditions may differ.

What was measured:
[1] = tested on: nicotinic receptors in brain; assay type: binding, mouse
[2] = tested on: nicotinic receptors of striatum membrane preparations; assay type: binding, mouse
[3] = tested on: nicotinic acetylcholine receptors (nAChR) of striatal synaptosomes; assay type: biochemical, mouse
cFos expression = settings: mouse, in vivo
[4] = tested on: nAChRs containing the α6 subunit (brain sections); assay type: binding, mouse

## O=c1cccc2n1C[C@@H]1CNC[C@H]2C1 [cytisine]
[1]
  number of sites with high affinity for the ligand: reduction; also recorded: no other difference could be detected

## Clc1ccc(C2CC3CCC2N3)cn1 (stereo not drawn) [epibatidine]
[1]
  number of sites with high affinity for the ligand: reduction; also recorded: no other difference could be detected
[2]
  total number of epibatidine sites: could not show a reduction

## CN1CCCC1c1cccnc1 (stereo not drawn) [nicotine]
[3]
  change in the affinity of the dopamine release response to nicotine (dose-response curve): loss of affinity of an order of magnitude; also recorded: drop of one order of magnitude
  dopamine release peak induced by nicotine: 50%
  effect of nicotine on dopamine release: completely absent
  increase in dopamine release over the basal level: about 100%
[1]
  number of sites with high affinity for the ligand: reduction; also recorded: no other difference could be detected
cFos expression
  activation of cFos expression in response to nicotine: absence of activation

## α-Conotoxin MII [αCtxMII]
[3]
  DA release peak induced by nicotine above the basal level in presence of αCtxMII: 50%
[4]
  binding sites on brain sections: presence of binding sites in three major anatomical systems
  high affinity binding sites for the toxin: complete disappearance
[2]
  sites sensitive to αCtxMII as share of the total number of epibatidine sites: 20%
  sites with high and low affinity for αCtxMII: total disappearance

## α-bungarotoxin
[1]
  ligand bond (distribution of binding sites) in mutants versus Wt: not modified
